Test systems include BT-549 breast; MOLT-4 leukemia; IGROV1 ovarian; SN12C renal; SR leukemia; CAKI-1 renal; OVCAR-5 ovarian; RPMI-8226 leukemia; UACC-62 melanoma; SF-295 CNS; NCI-H460 lung; K-562 leukemia; NCI-H226 lung; A498 renal; HT29 colon; TK-10 renal; HOP-62 NSCLC; COLO 205 colon; U251 CNS; SNB-19 CNS.
Common to all, as to assay: NCI anticancer screen, dose series, 48 h

These results are taken from PubChem BioAssay (NCI).

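Values below derive from 48-hour exposures of cells grown in 96-well plates, with endpoints linearly interpolated between the two concentrations bracketing the appropriate inhibition level. TGI marks complete inhibition of growth.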 Where a SMILES comes first, the peptide text is derived from it. The star is where a group is joined. OBn = c1ccc(CO*)cc1 Bounds are passed on as bounds.

On to `Cc1ccnc2c1ccc1nc3ccccc3n12`, for which the TGI in the test with BT-549 breast, in the test with MOLT-4 leukemia, in the test with IGROV1 ovarian, in the test on SN12C renal, in the test with SR leukemia and in the test on CAKI-1 renal was above 100 µM throughout. Moreover, the TGI with OVCAR-5 ovarian, in the test on RPMI-8226 leukemia, with UACC-62 melanoma, in the test with SF-295 CNS, in the test with NCI-H460 lung and in the test with K-562 leukemia was above 100 µM each time. In addition, the TGI in the test with NCI-H226 lung, in the test on A498 renal, in the test with HT29 colon, in the test on TK-10 renal, in the test with HOP-62 NSCLC and in the test on COLO 205 colon was above 100 µM each time.
As to `O=C1CCSc2c(cnc3ccccc23)N1`, the TGI in the test with BT-549 breast, in the test with MOLT-4 leukemia, in the test on IGROV1 ovarian, in the test on SN12C renal, in the test with SR leukemia and in the test with CAKI-1 renal was above 100 µM throughout. Besides, the TGI in the test with OVCAR-5 ovarian, in the test on RPMI-8226 leukemia, in the test with UACC-62 melanoma, with SF-295 CNS, in the test on NCI-H460 lung and in the test on K-562 leukemia was above 100 µM throughout. For the same compound, the TGI with U251 CNS, in the test on NCI-H226 lung, in the test with A498 renal, in the test on HT29 colon, with TK-10 renal and in the test on HOP-62 NSCLC was above 100 µM throughout. The same compound gave a TGI in the test on COLO 205 colon above 100 µM.
In the case of `Cc1ncc([N+](=O)[O-])n1CCNC(=O)CCn1ccnc1[N+](=O)[O-]`, the TGI in the test with BT-549 breast, in the test on MOLT-4 leukemia, in the test with IGROV1 ovarian, with SN12C renal, in the test with SR leukemia and in the test with CAKI-1 renal was above 100 µM in each case. Also, the TGI in the test on OVCAR-5 ovarian, in the test on RPMI-8226 leukemia, with UACC-62 melanoma, with SF-295 CNS, in the test with NCI-H460 lung and in the test on K-562 leukemia was above 100 µM throughout. Moreover, the TGI in the test with U251 CNS, in the test on NCI-H226 lung, in the test with SNB-19 CNS, in the test on HT29 colon, in the test on TK-10 renal and with HOP-62 NSCLC was above 100 µM each time. The same compound yielded a TGI in the test with COLO 205 colon above 100 µM.
On to `O=S1(=O)OCCCOS(=O)(=O)C1Br`, for which the TGI in the test on BT-549 breast, with MOLT-4 leukemia, with SN12C renal, in the test on SR leukemia, with CAKI-1 renal and in the test with OVCAR-5 ovarian was above 100 µM in each case. For the same compound, the TGI in the test with RPMI-8226 leukemia, in the test with UACC-62 melanoma, in the test on SF-295 CNS, with U251 CNS, with NCI-H226 lung and in the test with SNB-19 CNS was above 100 µM each time. For the same compound, the TGI in the test with HT29 colon, in the test with TK-10 renal, in the test on HOP-62 NSCLC and in the test on COLO 205 colon was above 100 µM each time.
With `CCOC(=O)/C(=C\NC(C)(C)C)c1nc2ccccc2o1`, the TGI in the test on BT-549 breast is above 100 µM; in the test on IGROV1 ovarian, above 100 µM; in the test with SN12C renal it was above 100 µM; with SR leukemia, 48.6 µM; in the test with CAKI-1 renal it was above 100 µM; with OVCAR-5 ovarian, above 100 µM. Besides, the TGI in the test with RPMI-8226 leukemia was 50.8 µM; with UACC-62 melanoma, 50.6 µM; in the test with SF-295 CNS it was above 100 µM; with NCI-H460 lung, above 100 µM; in the test on NCI-H226 lung, 63.4 µM; with SNB-19 CNS, above 100 µM. Moreover, the TGI with A498 renal is above 100 µM; in the test with HT29 colon, 80.8 µM; with TK-10 renal it was above 100 µM; in the test on HOP-62 NSCLC it was above 100 µM; in the test on COLO 205 colon it was 55.3 µM.
`COc1c(O)cc2c(c1O)C1O[C@H](CO)C(O)[C@H](O)[C@H]1OC2=O` (some centres undefined): the TGI with BT-549 breast, with MOLT-4 leukemia, in the test on IGROV1 ovarian, with SN12C renal, in the test with SR leukemia and in the test on CAKI-1 renal was above 100 µM throughout. In addition, the TGI in the test with OVCAR-5 ovarian, in the test on RPMI-8226 leukemia, in the test with SF-295 CNS, in the test on NCI-H460 lung, in the test with K-562 leukemia and in the test on U251 CNS was above 100 µM throughout. The TGI with NCI-H226 lung, with SNB-19 CNS, in the test with HT29 colon, with TK-10 renal, in the test with HOP-62 NSCLC and in the test with COLO 205 colon was above 100 µM each time.
As to `O=C(NN1C(=O)c2ccccc2C1=O)c1ccccc1Nc1ccccc1C(=O)NN1C(=O)c2ccccc2C1=O`, the TGI in the test on BT-549 breast, with MOLT-4 leukemia, with IGROV1 ovarian, in the test with SN12C renal, in the test on SR leukemia and with CAKI-1 renal was above 100 µM each time. Besides, the TGI in the test on OVCAR-5 ovarian, with RPMI-8226 leukemia, in the test on UACC-62 melanoma, in the test with SF-295 CNS, with NCI-H460 lung and in the test on K-562 leukemia was above 100 µM throughout. Also, the TGI in the test on U251 CNS, with NCI-H226 lung, in the test with SNB-19 CNS, in the test with HT29 colon, in the test with TK-10 renal and with HOP-62 NSCLC was above 100 µM in each case. For the same compound, the TGI in the test with COLO 205 colon was above 100 µM.
Consider `CCOC(=O)Oc1cc2c(ccn2C)c2c1c1ccccc1n2C(=O)OCC`, for which the TGI with BT-549 breast, in the test with MOLT-4 leukemia, with IGROV1 ovarian, with SN12C renal, in the test on SR leukemia and in the test on CAKI-1 renal was above 100 µM throughout. In addition, the TGI in the test on OVCAR-5 ovarian, with RPMI-8226 leukemia, in the test with UACC-62 melanoma, in the test with SF-295 CNS, in the test on NCI-H460 lung and in the test on K-562 leukemia was above 100 µM each time. The TGI in the test with U251 CNS, with NCI-H226 lung, in the test with A498 renal, with HT29 colon, in the test with TK-10 renal and with HOP-62 NSCLC was above 100 µM in each case. The same compound had a TGI with COLO 205 colon above 100 µM.
With `C=C1CC(COc2ccc3ccc(=O)oc3c2)(c2ccccc2)OC1=O` (centres undefined), the TGI in the test with BT-549 breast is 2.95 µM; with MOLT-4 leukemia, 4.16 µM; in the test with IGROV1 ovarian, 3.36 µM; with SN12C renal it was 8.23 µM; in the test on SR leukemia, above 31 µM; in the test with CAKI-1 renal, 2.52 µM. For the same compound, the TGI with OVCAR-5 ovarian stood at 13 µM; with RPMI-8226 leukemia it was 0.434 µM; in the test on UACC-62 melanoma it was 2.92 µM; with SF-295 CNS, 20.7 µM; in the test on NCI-H460 lung it was 28 µM; in the test on K-562 leukemia, 2.45 µM. Besides, the TGI in the test with U251 CNS was 22.2 µM; with NCI-H226 lung it was 12.4 µM; in the test with SNB-19 CNS it was 28.5 µM; with HT29 colon, 2.27 µM; in the test on TK-10 renal it was 2.99 µM; with HOP-62 NSCLC, 26.9 µM. The compound further registered a TGI with COLO 205 colon of 1.79 µM.
Consider `Cc1ccnc2nc3[nH]c4ccccc4c3cc12`, for which the TGI in the test on BT-549 breast, in the test on MOLT-4 leukemia, with IGROV1 ovarian, in the test with SN12C renal, with SR leukemia and with CAKI-1 renal was above 100 µM each time. Moreover, the TGI in the test with OVCAR-5 ovarian, in the test with RPMI-8226 leukemia, with UACC-62 melanoma, in the test on SF-295 CNS, in the test with NCI-H460 lung and in the test with K-562 leukemia was above 100 µM throughout. The TGI in the test with U251 CNS, with NCI-H226 lung, in the test with A498 renal, in the test on HT29 colon, in the test on TK-10 renal and with HOP-62 NSCLC was above 100 µM throughout. This compound also had a TGI with COLO 205 colon above 100 µM.
Regarding `CC(C)N1CCCOC(c2ccc([N+](=O)[O-])cc2)O1` (centres undefined), the TGI in the test on BT-549 breast, in the test on MOLT-4 leukemia, with IGROV1 ovarian, in the test on SN12C renal, in the test with SR leukemia and in the test with CAKI-1 renal was above 100 µM each time. Further, the TGI in the test on OVCAR-5 ovarian, in the test with UACC-62 melanoma, in the test on SF-295 CNS, with NCI-H460 lung, in the test on K-562 leukemia and in the test with U251 CNS was above 100 µM throughout. For the same compound, the TGI in the test with NCI-H226 lung, with A498 renal, with HT29 colon, in the test on TK-10 renal, in the test with HOP-62 NSCLC and with COLO 205 colon was above 100 µM throughout.
For the compound `O=C(/C=C/c1cccs1)c1ccc(C(=O)/C=C/c2cccs2)cc1`, the TGI in the test on BT-549 breast, in the test on MOLT-4 leukemia, in the test on IGROV1 ovarian, in the test on SN12C renal, with SR leukemia and in the test on CAKI-1 renal was above 100 µM each time. The TGI in the test on OVCAR-5 ovarian, with UACC-62 melanoma, in the test on SF-295 CNS, with NCI-H460 lung, in the test with U251 CNS and with NCI-H226 lung was above 100 µM each time. The TGI in the test on SNB-19 CNS, in the test on A498 renal, in the test on HT29 colon, in the test with TK-10 renal, in the test with HOP-62 NSCLC and in the test on COLO 205 colon was above 100 µM in each case.
`CCOC(=O)c1c(-c2ccccc2)[nH]c2ccc(Cl)cc2c1=O`: the TGI with BT-549 breast, in the test with MOLT-4 leukemia, in the test with IGROV1 ovarian, in the test with SN12C renal, with SR leukemia and with CAKI-1 renal was above 100 µM in each case. Further, the TGI with OVCAR-5 ovarian, with RPMI-8226 leukemia, with UACC-62 melanoma, in the test with SF-295 CNS, in the test with NCI-H460 lung and in the test on K-562 leukemia was above 100 µM each time. The TGI in the test on U251 CNS, in the test on NCI-H226 lung, in the test on SNB-19 CNS, in the test on HT29 colon, in the test with TK-10 renal and with HOP-62 NSCLC was above 100 µM in each case. In the test on COLO 205 colon, this compound came in with a TGI above 100 µM.
Regarding `CN1CCN(C(=S)N(C)C(=O)c2cccs2)CC1`, the TGI in the test with BT-549 breast, in the test with MOLT-4 leukemia, with IGROV1 ovarian, in the test with SN12C renal, with SR leukemia and in the test on OVCAR-5 ovarian was above 100 µM throughout. Also, the TGI in the test on RPMI-8226 leukemia, in the test on UACC-62 melanoma, in the test with SF-295 CNS, in the test on NCI-H460 lung, in the test on K-562 leukemia and with U251 CNS was above 100 µM in each case. Also, the TGI with NCI-H226 lung, with SNB-19 CNS, with HT29 colon, in the test with TK-10 renal and in the test on COLO 205 colon was above 100 µM in each case.
For `NC(CCC(=O)OCc1ccccc1)C(=O)NC(CCC(=O)OCc1ccccc1)C(=O)O` (centres undefined) (H-Glu(OBn)-Glu(OBn)-OH; configuration not given here), the TGI with BT-549 breast, in the test with MOLT-4 leukemia, with IGROV1 ovarian, in the test with SN12C renal, with SR leukemia and in the test with CAKI-1 renal was above 100 µM throughout. Also, the TGI in the test on OVCAR-5 ovarian, with RPMI-8226 leukemia, in the test with UACC-62 melanoma, with SF-295 CNS, with NCI-H460 lung and with K-562 leukemia was above 100 µM throughout. In addition, the TGI with U251 CNS, with NCI-H226 lung, in the test with SNB-19 CNS, in the test on HT29 colon, in the test with TK-10 renal and in the test with HOP-62 NSCLC was above 100 µM in each case. In addition, in the test on COLO 205 colon, the TGI is above 100 µM.
